Data from US9861616B2, “Methods for treating respiratory diseases and formulations therefor” (priority 2013, dated 2018).

Assay: Intrapulmonary penetration into ELF and AM, Phase 1 clinical study
Type: in vivo, healthy adult subjects
Settings: 400 mg orally daily for 5 days, Day 5, 24 hour period
Experimental: CEM-101 is evaluated for the treatment of patients with community-acquired bacterial pneumonia. The penetration of CEM-101 into the epithelial lining fluid (ELF) and alveolar macrophages (AM) is assessed in a Phase 1 clinical study.
30 subjects received 400 mg of CEM-101 orally daily for 5 days. On Day 5, each subject underwent a single bronchoscopy and bronchoalveolar lavage at 1 of 5 time points (3, 6, 9, 12 or 24 h post-dose) to obtain ELF and AM samples (6 subjects/time point). Plasma samples were collected pre-dose on Days 1 to 5 and serially post-dose on Day 5 and 6. The samples collected were assayed for CEM-101 using LC/MS/MS. Urea in the plasma and ELF was used to correct the ELF CEM-101 concentrations. Noncompartmental pharmacokinetic (PK) analysis using the median concentrations at each time point was used to calculate Day 5 AUC0-24. In addition, a population PK model (PPM) was used to determine Day 5 AUC0-24 for each subject in plasma and ELF. Intrapulmonary penetration of CEM-101 into the ELF and AM was determined by dividing the Day 5 AUC0-24 of each matrix by the Day 5 plasma AUC0-24.

CC[C@H]1OC(=O)[C@@](C)(F)C(=O)[C@H](C)[C@@H](O[C@@H]2O[C@H](C)C[C@H](N(C)C)[C@H]2O)[C@](C)(OC)C[C@@H](C)C(=O)[C@H](C)[C@H]2N(CCCCn3cc(-c4cccc(N)c4)nn3)C(=O)O[C@]12C [CEM-101, solithromycin]
exposure in AM compared to plasma: > 180 times | exposure in ELF compared to plasma: > 8 times
